Measured values reported in patent US6465478B1 (dated 2002).
Structures can show the parent of a compound that is named as a salt.

Structure (SMILES)	melting point [°C]
NCCCN1CN(c2ccccc2)C2(CCN(C3(c4ccccc4)CCCCCC3)CC2)C1=O (as salt: HCl)	150 to 154
CC1(N2CCC3(CC2)C(=O)NCN3c2ccccc2)CCC=CCC1 (as salt: hydrochloride)	251 to 254

Continued, values first:

melting point [°C]	Structure (SMILES)
174 to 178	O=C1N(CCN2CCCCC2)CN(c2ccccc2)C12CCN(C1(c3ccccc3)CCCCCC1)CC2 (as salt: HCl)
50 to 53	CC1(N2CCC3(CC2)C(=O)N(CCN2CCCCC2)CN3c2ccccc2)CCCCCC1 (as salt: HCl)
216 to 220	CC1(N2CCC3(CC2)C(=O)N(CCCN)CN3c2ccccc2)CCCCCC1 (as salt: HCl)
